Data taken from patent US10287295B2, “TGF-β inhibitors” (Rigel Pharmaceuticals, Inc., priority 2015, dated 2019).

Assays:
[1] = tested on: TGF-β signaling (TGF-β pSMAD, MPC-11); assay: AlphaScreen SureFire SMAD3 (p-Ser423/425) assay, inhibition of TGF-β signaling; assay type: cell-based; details: Mus musculus, MPC-11, inhibition of TGF-β signaling, p-SMAD3 readout
[2] = tested on: GDF8 signaling (GDF pSMAD, MPC11); assay: AlphaScreen SureFire SMAD3 (p-Ser423/425) assay, inhibition of GDF8 signaling; assay type: cell-based; details: Mus musculus, MPC-11, inhibition of GDF8 signaling, p-SMAD3 readout

Row | SMILES | IC50 [1] | IC50 [2]
1 | Cc1cccc(-c2nc[nH]c2-c2ccc3[nH]ncc3c2)c1 [Compound 15, 5-(4-(m-Tolyl)-1H-imidazol-5-yl)-1H-indazole] | 60 nM | 10 nM
2 | Cc1nc(-c2ccc(F)c(F)c2)c(-c2ccc3cn[nH]c3c2)[nH]1 [Compound 84, 6-(4-(3,4-Difluorophenyl)-2-methyl-1H-imidazol-5-yl)-1H-indazole] | 2900 nM | 320 nM
3 | Nc1nc(-c2cccc(Cl)c2)c(-c2ccc3nccnc3c2)s1 [Compound 169, 4-(3-chlorophenyl)-5-(quinoxalin-6-yl)thiazol-2-amine] | 236 nM | 95.1 nM
4 | CCc1nc(-c2cccc(Cl)c2)c(-c2ccc3ncsc3c2)[nH]1 [Compound 126, 6-(4-(3-Chlorophenyl)-2-ethyl-1H-imidazol-5-yl)benzo[d]thiazole] | 340 nM | 90 nM
5 | Cn1cnc(-c2ccc(F)c(F)c2)c1-c1ccc2nccnc2c1 [Compound 68, 6-(4-(3,4-Difluorophenyl)-1-methyl-1H-imidazol-5-yl)quinoxaline] | 2870 nM | 1050 nM
6 | Fc1ccc(-c2nc[nH]c2-c2ccc3ncsc3c2)cc1F [Compound 34, 6-(4-(3,4-Difluorophenyl)-1H-imidazol-5-yl)benzo[d]thiazole] | 140 nM | 70 nM
7 | Nc1nc(-c2cccc(C(F)(F)F)c2)c(-c2ccc3nccnc3c2)s1 [Compound 180, 5-(quinoxalin-6-yl)-4-(3-(trifluoromethyl)phenyl)thiazol-2-amine] | 621 nM | 301 nM
8 | Cn1cnc(-c2cccc(Cl)c2)c1-c1ccc2ncn(C)c2c1 [Compound 62, 6-(4-(3-Chlorophenyl)-1-methyl-1H-imidazol-5-yl)-1-methyl-1H-benzo[d]imidazole] | 220 nM | 50 nM
9 | Nc1nc(-c2cccc(C(F)(F)F)c2)c(-c2ccc3nccn3c2)s1 [Compound 171, 5-(imidazo[1,2-a]pyridin-6-yl)-4-(3-(trifluoromethyl)phenyl)thiazol-2-amine] | 423 nM | 109 nM
10 | Nc1nc(-c2cccc(F)c2)c(-c2ccc3nccn3c2)s1 [Compound 187, 4-(3-fluorophenyl)-5-(imidazo[1,2-a]pyridin-6-yl)thiazol-2-amine] | 3100 nM | 481 nM
11 | CCc1nc(-c2ccc(F)cc2)c(-c2ccc3ncnn3c2)[nH]1 [Compound 121, 6-(2-Ethyl-4-(4-fluorophenyl)-1H-imidazol-5-yl)-[1,2,4]triazolo[1,5-a]pyridine] | 2070 nM | 460 nM
12 | Nc1nc(-c2cccc(F)c2)c(-c2ccc3[nH]ncc3c2)s1 [Compound 179, 4-(3-fluorophenyl)-5-(1H-indazol-5-yl)thiazol-2-amine] | 1280 nM | 268 nM
13 | Cc1cccc(-c2ncn(C)c2-c2ccc3ncccc3c2)c1 [Compound 46, 6-(1-Methyl-4-(m-tolyl)-1H-imidazol-5-yl)quinoline] | 1680 nM | 260 nM
14 | Cc1nc(-c2ccc(F)c(F)c2)c(-c2ccc3nccn3c2)[nH]1 [Compound 87, 6-(4-(3,4-Difluorophenyl)-2-methyl-1H-imidazol-5-yl)imidazo[1,2-a]pyridine] | 3460 nM | 330 nM
15 | Cc1nc(-c2ccc(F)c(F)c2)c(-c2ccc3ncn(C)c3c2)[nH]1 [Compound 85, 6-(4-(3,4-Difluorophenyl)-2-methyl-1H-imidazol-5-yl)-1-methyl-1H-benzo[d]imidazole] | 670 nM | 180 nM
16 | Cn1cnc2ccc(-c3[nH]cnc3-c3ccc(F)c(F)c3)cc21 [Compound 33, 6-(4-(3,4-Difluorophenyl)-1H-imidazol-5-yl)-1-methyl-1H-benzo[d]imidazole] | 70 nM | 60 nM
17 | CCc1nc(-c2ccc(F)cc2)c(-c2ccc3[nH]ncc3c2)[nH]1 [Compound 119, 5-(2-Ethyl-4-(4-fluorophenyl)-1H-imidazol-5-yl)-1H-indazole] | 4740 nM | 410 nM
18 | Fc1ccc(-c2nc[nH]c2-c2ccc3cn[nH]c3c2)cc1 [Compound 11, 6-(4-(4-Fluorophenyl)-1H-imidazol-5-yl)-1H-indazole] | 130 nM | 40 nM
19 | Fc1ccc(-c2nc(C(F)(F)F)[nH]c2-c2ccc3ncnn3c2)cc1 [Compound 151, 6-(4-(4-Fluorophenyl)-2-(trifluoromethyl)-1H-imidazol-5-yl)-[1,2,4]triazolo[1,5-a]pyridine] | 1400 nM | 590 nM
20 | CCc1nc(-c2cccc(C)c2)c(-c2ccc3[nH]ncc3c2)[nH]1 [Compound 113, 5-(2-Ethyl-4-(m-tolyl)-1H-imidazol-5-yl)-1H-indazole] | 3110 nM | 460 nM
21 | FC(F)(F)c1nc(-c2cccc(Cl)c2)c(-c2ccc3ncnn3c2)[nH]1 [Compound 150, 6-(4-(3-Chlorophenyl)-2-(trifluoromethyl)-1H-imidazol-5-yl)-[1,2,4]triazolo[1,5-a]pyridine] | 850 nM | 350 nM

Further lines, results first:

Row | IC50 [1] | IC50 [2] | SMILES
22 | 72.4 nM | 22.9 nM | Cc1cc(-c2nc(N)sc2-c2ccc3nccn3c2)ccc1F [Compound 155, 4-(4-fluoro-3-methylphenyl)-5-(imidazo[1,2-a]pyridin-6-yl)thiazol-2-amine]
23 | 210 nM | 90 nM | Cc1cc(-c2ncn(C)c2-c2ccc3ncn(C)c3c2)ccc1F [Compound 8, 6-(4-(4-Fluoro-3-methylphenyl)-1-methyl-1H-imidazol-5-yl)-1-methyl-1H-benzo[d]imidazole]
24 | 1680 nM | 580 nM | Cn1cnc(-c2ccc(F)c(F)c2)c1-c1ccc2ncsc2c1 [Compound 67, 6-(4-(3,4-Difluorophenyl)-1-methyl-1H-imidazol-5-yl)benzo[d]thiazole]
25 | 4190 nM | 430 nM | Cc1nc(-c2ccc(F)c(F)c2)c(-c2ccc3nccnc3c2)[nH]1 [Compound 89, 6-(4-(3,4-Difluorophenyl)-2-methyl-1H-imidazol-5-yl)quinoxaline]
26 | 620 nM | 160 nM | Clc1ccc(-c2nc[nH]c2-c2ccc3[nH]ncc3c2)cc1 [Compound 6, 5-(4-(4-Chlorophenyl)-1H-imidazol-5-yl)-1H-indazole]
27 | 1480 nM | 460 nM | CCc1nc(-c2cccc(Cl)c2)c(-c2ccc3ncccc3c2)[nH]1 [Compound 128, 6-(4-(3-Chlorophenyl)-2-ethyl-1H-imidazol-5-yl)quinoline]
28 | 390 nM | 190 nM | Clc1cccc(-c2nc[nH]c2-c2ccc3ncccc3c2)c1 [Compound 39, 6-(4-(3-Chlorophenyl)-1H-imidazol-5-yl)quinoline]
29 | – | 290 nM | Cn1cnc2ccc(-c3[nH]cnc3-c3cccc(F)c3)cc21 [Compound 29, 6-(4-(3-Fluorophenyl)-1H-imidazol-5-yl)-1-methyl-1H-benzo[d]imidazole]
30 | 898 nM | 124 nM | COc1ccc(-c2nc(N)sc2-c2ccc3cn[nH]c3c2)cc1 [Compound 173, 5-(1H-indazol-6-yl)-4-(4-methoxyphenyl)thiazol-2-amine]
31 | 1330 nM | 130 nM | Cc1nc(-c2ccc(F)c(F)c2)c(-c2ccc3[nH]ncc3c2)[nH]1 [Compound 83, 5-(4-(3,4-Difluorophenyl)-2-methyl-1H-imidazol-5-yl)-1H-indazole]
